Experimental data: US20020031509A1, “Pharmaceutical composition and method for its manufacture” (priority 1999, published 2002)

System: P. aeruginosa
Assay: Experiment 2 screening for antibiotic effect, P. aeruginosa
Format: cell-based, Pseudomonas aeruginosa
Conditions: 24 h post inoculation
Experimental: The second experiment consisted of a screening for antibiotic effect of individual and combined substances. The materials that were used were:
The method involved the use of a microtiter (ELISA) plate (12×8 wells, i.e 96 wells in total, obtained from NUNC) with serial dilutions of venoms and bacteria at two concentrations.
The incubation time was 24 hours. OD was monitored at 650 nm every hour the first 7-8 hours, and then at 20 hours and 24 hours post inoculation. Each well was given 200 μl of diluted venom plus bacteria.
Three-dimensional diagrams shown as FIG. 3 to 11 summarize the above results. Observe that in each diagram serge 1 (Z axis) is substance BF, serie 2 is NK, 3 is OH, 4 is BA, 5 is TA, 6 is OH+BA, 7 is OH+TA and serie 8 is reference antibiotic. On the X-axis 1-5 is concentration of substance: 500, 250, 125, 62.5 och 31.2 mikrog/ml for substances (N.B. OH+BA and OH+TA have the double concentrations, i.e. the concentration is 1000, 500, 250, 125 and 62.5 ), and 100, 50, 25, 12.5, 6.25 mikrog/ml for reference antibiotic. The name on the diagrams is the tested bacteria strain (initials only given) and time is 7 hours after incubation start at which the substance was added. The combined OH+BA and OH+TA were obtained by mixing the single venoms in the same proportions.

NC[C@H]1O[C@H](O[C@H]2[C@H](O)[C@@H](O[C@H]3O[C@H](CO)[C@@H](O)[C@H](N)[C@H]3O)[C@H](N)C[C@@H]2N)[C@H](O)[C@@H](O)[C@@H]1O [Kanamycin]
antibacterial effect: no effect
